Measurements from the supplement of paper PMC11208160.

Assay: recombinant barcode read abundance after kanamycin selection (control-corrected) (log10(CPM+1)); higher = more efficient recombination; sequences stand for … in AGTGCAGAGAAAATCGGCCAGTTTTCTCTGCCTGCAGTCCGCATGCCGT…AGATTTATGCAGCGGACTGCCTTTCTCCCAAAGTGATAAACCGGACAGTATCATGGACCGGTTTTCCCGGTAATCCGTATTTGCAAGGTTGGTTTCACT; site = the 11-nt target
Outline: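 Reported as log10(CPM+1), each value stands for recombination efficiency. That efficiency is the averaged, control-corrected counts per million of barcodes found at recombinant junctions. Cells from a pooled E. coli library pairing targets with IS621 bridge RNA target-binding loops were plated twice on chloramphenicol/ampicillin LB agar (control) and twice on chloramphenicol/ampicillin/kanamycin with 0.1 mM IPTG.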
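Note: IS621 recombinase and bridge RNA in Escherichia coli cells.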

Row | Sequence | recombinant barcode read abundance (log10)
1 | GCCAACCCTTGGGTTCTAACCTGTTGCCT (site GCCAACCCTAG) | 0.326
2 | GCCAACCCTTGGGTTCTAACCTGTTGCCT (site GCCAACCCTAT) | 0.0781
3 | GCCAAGCCTTGGGTTCTAACCTGTTGCTG (site GCCAAGCCTCA) | 0.257
4 | GCCAAGCCTTGGGTTCTAACCTGTTGCTG (site TCCAACCCTCA) | 0.0182
5 | GCCAAGGCTTGGGTTCTAACCTGTTGCCT (site AGTTTCACTTA) | 0.0355
6 | GCCAAGGCTTGGGTTCTAACCTGTTGCCT (site GCCAAGGCTAG) | 0.407
7 | GCCACGCCTTGGGTTCTAACCTGTTGCAG (site GCCACGCCTCT) | 0.115
8 | GCCACGCCTTGGGTTCTAACCTGTTGCAG (site GCCCCGCCTCT) | 0.0522
9 | GCCACGCCTTGGGTTCTAACCTGTTGCAG (site GCCGCGCCTCT) | 0.053
10 | GCCACGCCTTGGGTTCTAACCTGTTGCAG (site GCCTCGCCTCT) | 0.389
11 | GCCATGTCTTGGGTTCTAACCTGTTGCTA (site ACCTTGTCTTA) | 0.0829
12 | GCCATGTCTTGGGTTCTAACCTGTTGCTA (site GCCATGTCTTA) | 0.145
13 | GCCCGTCCTTGGGTTCTAACCTGTTGCCG (site CTCCGTCCTCG) | 0.116
14 | GCCCGTCCTTGGGTTCTAACCTGTTGCCG (site GCCCGTCCTCG) | 1
15 | GCCGAGTCTTGGGTTCTAACCTGTTGCCT (site GCCGAGTCTAG) | 1.03
16 | GCCGAGTCTTGGGTTCTAACCTGTTGCCT (site GCCGAGTCTGT) | 0.142
17 | GCCGAGTCTTGGGTTCTAACCTGTTGCTG (site GCCGAGTCTAA) | 0.11
18 | GCCGAGTCTTGGGTTCTAACCTGTTGCTG (site GCCGAGTCTCA) | 0.564
19 | GCCGAGTCTTGGGTTCTAACCTGTTGCTG (site GCCGAGTCTGA) | 0
20 | GCCGAGTCTTGGGTTCTAACCTGTTGCTG (site GCCGAGTCTTA) | 0.219
21 | GCCGGGTCTTGGGTTCTAACCTGTTGCTT (site GCAGGGTCTAA) | 1.26
22 | GCCGGGTCTTGGGTTCTAACCTGTTGCTT (site GCCGGGTCTAA) | 0.812

Row | Sequence | recombinant barcode read abundance (log10)
23 | GCCGGGTCTTGGGTTCTAACCTGTTGCTT (site GCGGGGTCTAA) | 0.092
24 | GCCGGGTCTTGGGTTCTAACCTGTTGCTT (site GCTGGGTCTAA) | 0.337
25 | GCCGGTCCTTGGGTTCTAACCTGTTGCCT (site GCAGGTCCTAG) | 0.522
26 | GCCGGTCCTTGGGTTCTAACCTGTTGCCT (site GCCGGTCCTAG) | 0.549
27 | GCCGGTCCTTGGGTTCTAACCTGTTGCCT (site GCGGGTCCTAG) | 0.451
28 | GCCGGTCCTTGGGTTCTAACCTGTTGCCT (site GCTGGTCCTAG) | 0.14
29 | GCCGTAGCTTGGGTTCTAACCTGTTGCCT (site GACGTAGCTAG) | 0.0542
30 | GCCGTAGCTTGGGTTCTAACCTGTTGCCT (site GCCGTAGCTAG) | 0.0284
31 | GCCGTAGCTTGGGTTCTAACCTGTTGCCT (site GGCGTAGCTAG) | 0.163
32 | GCCGTAGCTTGGGTTCTAACCTGTTGCCT (site GTCGTAGCTAG) | 0.00812
33 | GCCTGCCCTTGGGTTCTAACCTGTTGCCT (site GACTGCCCTAG) | 0.0828
34 | GCCTGCCCTTGGGTTCTAACCTGTTGCCT (site GCCTGCCCTAG) | 0.892
35 | GCCTGCCCTTGGGTTCTAACCTGTTGCCT (site GGCTGCCCTAG) | 0.0211
36 | GCCTGCCCTTGGGTTCTAACCTGTTGCCT (site GTCTGCCCTAG) | 0.0318
37 | GCGAACCCTTGGGTTCTAACCTGTTGCGG (site GCGAACCCTCC) | 0.967
38 | GCGAACCCTTGGGTTCTAACCTGTTGCGG (site GCTAACCCTAC) | 0.0412
39 | GCGACATCTTGGGTTCTAACCTGTTGCCT (site GCGACATCTAG) | 0.428
40 | GCGACATCTTGGGTTCTAACCTGTTGCCT (site TAAGATGCTCC) | 0.162
41 | GCGCGCCCTTGGGTTCTAACCTGTTGCTG (site GCGCGCCCTCA) | 0.331
42 | GCGCGCCCTTGGGTTCTAACCTGTTGCTG (site GCGCGCCCTCC) | 0.0616
43 | GCGCGGCCTTGGGTTCTAACCTGTTGCCT (site ACGCGGCCTAG) | 0.56
44 | GCGCGGCCTTGGGTTCTAACCTGTTGCCT (site CCGCGGCCTAG) | 0.0374

Row | Sequence | recombinant barcode read abundance (log10)
45 | GCGCGGCCTTGGGTTCTAACCTGTTGCCT (site GCGCGGCCTAG) | 0.253
46 | GCGCGGCCTTGGGTTCTAACCTGTTGCCT (site TCGCGGCCTAG) | 0.0177
47 | GCGGATCCTTGGGTTCTAACCTGTTGCTA (site AGATTAGCTCG) | 0.159
48 | GCGGATCCTTGGGTTCTAACCTGTTGCTA (site GCGGATCCTTA) | 1.9
49 | GCGGCTCCTTGGGTTCTAACCTGTTGCAT (site GCGACTCCTAT) | 0.0805
50 | GCGGCTCCTTGGGTTCTAACCTGTTGCAT (site GCGCCTCCTAT) | 0.0751
51 | GCGGCTCCTTGGGTTCTAACCTGTTGCAT (site GCGGCTCCTAT) | 1.55
52 | GCGGCTCCTTGGGTTCTAACCTGTTGCAT (site GCGTCTCCTAT) | 0.331
53 | GCGGGTACTTGGGTTCTAACCTGTTGCCT (site GCGGGTACTAG) | 1.47
54 | GCGGGTACTTGGGTTCTAACCTGTTGCCT (site GCGTGTACTAG) | 0.0951
55 | GCGTCCACTTGGGTTCTAACCTGTTGCTA (site GCGTCCACTTA) | 0.0606
56 | GCGTCCACTTGGGTTCTAACCTGTTGCTA (site GCGTGCCCTTA) | 0.299
57 | GCGTCCTCTTGGGTTCTAACCTGTTGCTT (site GCGTCCTCTAA) | 0.636
58 | GCGTCCTCTTGGGTTCTAACCTGTTGCTT (site TACCGTCCTCC) | 0.0776
59 | GCGTCTACTTGGGTTCTAACCTGTTGCCT (site GCGTCTACTAG) | 0.169
60 | GCGTCTACTTGGGTTCTAACCTGTTGCCT (site GCGTGGACTAG) | 0.051
61 | GCGTGCCCTTGGGTTCTAACCTGTTGCTA (site GCGTCCACTTA) | 0.00781
62 | GCGTGCCCTTGGGTTCTAACCTGTTGCTA (site GCGTGCCCTTA) | 0.356
63 | GCGTGGACTTGGGTTCTAACCTGTTGCCT (site GCGTCTACTAG) | 0.235
64 | GCGTGGACTTGGGTTCTAACCTGTTGCCT (site GCGTGGACTAG) | 1.61
65 | GCGTTACCTTGGGTTCTAACCTGTTGCCT (site GCGTTACCTAG) | 0.97
66 | GCGTTACCTTGGGTTCTAACCTGTTGCCT (site GGGATACCTAG) | 0.0535

Row | Sequence | recombinant barcode read abundance (log10)
67 | GCTAAGACTTGGGTTCTAACCTGTTGCTG (site GCTAAGACTCA) | 1.93
68 | GCTAAGACTTGGGTTCTAACCTGTTGCTG (site GGTAAGACTCC) | 0.0258
69 | GCTACCTCTTGGGTTCTAACCTGTTGCCT (site GCTACCTCTAG) | 1.6
70 | GCTACCTCTTGGGTTCTAACCTGTTGCCT (site GTGACCTCTAG) | 0.254
71 | GCTAGCCCTTGGGTTCTAACCTGTTGCGG (site GCGAGCCCTAC) | 0.0935
72 | GCTAGCCCTTGGGTTCTAACCTGTTGCGG (site GCTAGCCCTCC) | 1.83
73 | GCTAGGGCTTGGGTTCTAACCTGTTGCAG (site GCAAGGGCTCG) | 0.491
74 | GCTAGGGCTTGGGTTCTAACCTGTTGCAG (site GCTAGGGCTCT) | 2.94
75 | GCTCAGACTTGGGTTCTAACCTGTTGCCT (site GCTCAGACTAG) | 1.78
76 | GCTCAGACTTGGGTTCTAACCTGTTGCCT (site GCTCAGCCTAG) | 0.0925
77 | GCTCAGACTTGGGTTCTAACCTGTTGCCT (site GCTCAGGCTAG) | 0.132
78 | GCTCAGACTTGGGTTCTAACCTGTTGCCT (site GCTCAGTCTAG) | 0.0442
79 | GCTCCTACTTGGGTTCTAACCTGTTGCCT (site GATCCTACTAG) | 0.118
80 | GCTCCTACTTGGGTTCTAACCTGTTGCCT (site GCTCCTACTAG) | 0.0272
81 | GCTCCTACTTGGGTTCTAACCTGTTGCCT (site GGTCCTACTAG) | 0.48
82 | GCTCCTACTTGGGTTCTAACCTGTTGCCT (site GTTCCTACTAG) | 0.108
83 | GCTCGGGCTTGGGTTCTAACCTGTTGCGG (site ATGTCCTCTTG) | 0.0124
84 | GCTCGGGCTTGGGTTCTAACCTGTTGCGG (site GCTCGGGCTCC) | 2.6
85 | GCTCTAGCTTGGGTTCTAACCTGTTGCCT (site GCACAAGCTAG) | 0.0696
86 | GCTCTAGCTTGGGTTCTAACCTGTTGCCT (site GCTCTAGCTAG) | 0.0295
